From patent US6706663B2, “Herbicidal 3-heterocyclic substituted benzisothiazole and benzisoxazole compounds” (Wyeth, priority 2000, dated 2004)

Experiments:
[1] = tested on: CYPSE (Cyperus serotinus); test: Flooded paddy, preemergence weed control; assay type: in vivo, Rottb.; conditions: rated 3-4 weeks after treatment, 0-9 rating scale
Summary of the method: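 Seeds or propagules were planted 0.5 cm deep in silt loam and flooded to 1.5–3 cm. Compounds in 50/50 v/v aqueous/acetone were pipetted into the flood water at about 0.0080 to 0.1250 kg/ha. After 3–4 weeks in the greenhouse, effect was rated visually on a 0–9 scale versus untreated control.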

SETVI (Setaria viridis) = test: Postemergence herbicidal evaluation; assay type: in vivo, (L.) Beau; conditions: for SETVI herbicidal rating: postemergence
Summary of the method: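 Postemergence foliar spray on two-week-old seedlings, dose equivalent to about 0.0040 to 1.000 kg/ha. Ratings use a 0-9 visual scale relative to control at four to five weeks.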

[2] = tested on: CASOB (Cassia obtusifolia); test: Preemergence herbicidal evaluation; assay type: in vivo, L.; conditions: rated 4-5 weeks after treatment
Summary of the method: (§1)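 Rating 0–9, visual, vs control; 4–5 wk after spraying seeded cups with compound in aq. acetone; conventional greenhouse care.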

[3] = tested on: CHEAL (Chenopodium album); test: Preemergence herbicidal evaluation; assay type: in vivo, L.; conditions: rated 4-5 weeks after treatment
Summary of the method: as §1

[4] = tested on: AMBEL (Ambrosia artemisifolia); test: Preemergence herbicidal evaluation; assay type: in vivo, L.; conditions: rated 4-5 weeks after treatment
Summary of the method: as §1

[5] = tested on: ECHCG (Echinochloa crus-galli); test: Postemergence herbicidal evaluation; assay type: in vivo, (L.) Beau; conditions: for ECHCG herbicidal rating: postemergence
Summary of the method: (§2)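 Visual 0–9 injury scores versus control plants, covering stand, vigour, malformation, size, chlorosis and general appearance, taken four to five weeks post-spray and averaged over replicate tests. Plants were sprayed at roughly two weeks old and held on greenhouse benches.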

[6] = tested on: ABUTH (Abutilon theophrasti); test: Preemergence herbicidal evaluation; assay type: in vivo, Medic.; conditions: rated 4-5 weeks after treatment
[7] = tested on: SAGPY (Sagittaria pygmaea); test: Flooded paddy, preemergence weed control; assay type: in vivo, L.; conditions: rated 3-4 weeks after treatment, 0-9 rating scale
Summary of the method: (§3)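 Silt loam, sowing depth ≤0.5 cm; permanent flood 1.5–3 cm above soil; greenhouse culture after treatment. Readout: 0-9 visual scale (stand, vigor, malformation, size, chlorosis, appearance) vs control.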

[8] = tested on: ECHORC (Echinochloa oryzoides); test: Flooded paddy, preemergence weed control; assay type: in vivo, Echinochloa oryzoides (Ard.) Fritsch.; conditions: rated 3-4 weeks after treatment, 0-9 rating scale
Summary of the method: as §3

CYPIR (Cyperus iria) = test: Flooded paddy, preemergence weed control; assay type: in vivo; conditions: rated 3-4 weeks after treatment, 0-9 rating scale
Summary of the method: as §3

ZEAMX (Corn, Field) = test: Preemergence herbicidal evaluation; assay type: in vivo, Zea mays, L.; conditions: rated 4-5 weeks after treatment
[9] = tested on: TRZAWR (Wheat, Winter, cv Riband); test: Postemergence herbicidal evaluation; assay type: in vivo, Triticum aestivum; conditions: for TRZAWR herbicidal rating: postemergence
Summary of the method: as §2

[10] = tested on: MOOVA (Monochoria vaginalis); test: Flooded paddy, preemergence weed control; assay type: in vivo, Presl.; conditions: rated 3-4 weeks after treatment, 0-9 rating scale
Summary of the method: as §3

[11] = tested on: GLXMAW (Soybean, Williams); test: Preemergence herbicidal evaluation; assay type: in vivo, Glycine max, (L.) Merr. cv Williams; conditions: rated 4-5 weeks after treatment
[12] = tested on: IPOHE (Ipomoea hederacea); test: Preemergence herbicidal evaluation; assay type: in vivo, (L.) Jacq.; conditions: rated 4-5 weeks after treatment
[13] = rate 0.0320 kg/ha, listed as 82
[14] = rate 0.1250 kg/ha, listed as 82
[15] = rate 0.0080 kg/ha, listed as 82

1-methyl-3-[3-(1,3-oxathian-2-yl)-1,2-benzisothiazol-5-yl]-6-(trifluoromethyl)uracil S′,S′-dioxide [Compound 35]
herbicidal rating, CYPSE ([1]; rate 0.0320 kg/ha): 2.0
herbicidal rating, CYPSE [1, 13]: 9.0
herbicidal rating, CYPSE ([1]; rate 0.1250 kg/ha): 5.0
herbicidal rating, CYPSE [1, 14]: 9.0
SETVI herbicidal rating (SETVI (Setaria viridis); rate 0.0320 kg/ha): 3.0
SETVI herbicidal rating (SETVI (Setaria viridis); rate 0.0620 kg/ha): 4.0
Postemergence herbicidal rating, SETVI (SETVI (Setaria viridis); rate 0.0320 kg/ha): 9.0
Postemergence herbicidal rating, SETVI (SETVI (Setaria viridis); rate 0.0620 kg/ha): 9.0
CASOB preemergence herbicidal rating ([2]; Rate 0.0620 kg/ha): 7.0
Preemergence herbicidal rating CASOB ([2]; Rate 0.0620 kg/ha): 0.0
CASOB preemergence herbicidal rating ([2]; Rate 0.1250 kg/ha): 7.0
Preemergence herbicidal rating CASOB ([2]; Rate 0.1250 kg/ha): 1.5
CASOB preemergence herbicidal rating ([2]; Rate 0.2500 kg/ha): 9.0
Preemergence herbicidal rating CASOB ([2]; Rate 0.2500 kg/ha): 2.0
CHEAL preemergence herbicidal rating ([3]; Rate 0.0620 kg/ha): 9.0
Preemergence herbicidal rating CHEAL ([3]; Rate 0.0620 kg/ha): 9.0
CHEAL preemergence herbicidal rating ([3]; Rate 0.1250 kg/ha): 9.0
Preemergence herbicidal rating CHEAL ([3]; Rate 0.1250 kg/ha): 9.0
CHEAL preemergence herbicidal rating ([3]; Rate 0.2500 kg/ha): 9.0
Preemergence herbicidal rating CHEAL ([3]; Rate 0.2500 kg/ha): 9.0
AMBEL preemergence herbicidal rating ([4]; Rate 0.0620 kg/ha): 9.0
Preemergence herbicidal rating AMBEL ([4]; Rate 0.0620 kg/ha): 3.5
AMBEL preemergence herbicidal rating ([4]; Rate 0.1250 kg/ha): 9.0
Preemergence herbicidal rating AMBEL ([4]; Rate 0.1250 kg/ha): 5.5
AMBEL preemergence herbicidal rating ([4]; Rate 0.2500 kg/ha): 9.0
Preemergence herbicidal rating AMBEL ([4]; Rate 0.2500 kg/ha): 6.5
ECHCG herbicidal rating ([5]; rate 0.0320 kg/ha): 2.0
ECHCG herbicidal rating ([5]; rate 0.0620 kg/ha): 3.0
Postemergence herbicidal rating, ECHCG ([5]; rate 0.0320 kg/ha): 3.0
Postemergence herbicidal rating, ECHCG ([5]; rate 0.0620 kg/ha): 4.0
ABUTH preemergence herbicidal rating ([6]; Rate 0.0620 kg/ha): 9.0
Preemergence herbicidal rating ABUTH ([6]; Rate 0.0620 kg/ha): 4.5
ABUTH preemergence herbicidal rating ([6]; Rate 0.1250 kg/ha): 9.0
Preemergence herbicidal rating ABUTH ([6]; Rate 0.1250 kg/ha): 9.0
ABUTH preemergence herbicidal rating ([6]; Rate 0.2500 kg/ha): 9.0
Preemergence herbicidal rating ABUTH ([6]; Rate 0.2500 kg/ha): 9.0
herbicidal rating, SAGPY ([7]; rate 0.0080 kg/ha): 0.0
herbicidal rating, ECHORC ([8]; rate 0.0080 kg/ha): 0.0
herbicidal rating, ECHORC [8, 15]: 7.0
herbicidal rating, ECHORC ([8]; rate 0.0320 kg/ha): 5.5
herbicidal rating, ECHORC [8, 13]: 9.0
herbicidal rating, ECHORC ([8]; rate 0.1250 kg/ha): 7.5
herbicidal rating, ECHORC [8, 14]: 9.0
herbicidal rating, CYPIR (CYPIR (Cyperus iria); rate 0.1250 kg/ha): 9.0
ZEAMX preemergence herbicidal rating (ZEAMX (Corn, Field); Rate 0.0620 kg/ha): 5.5
Preemergence herbicidal rating ZEAMX (ZEAMX (Corn, Field); Rate 0.0620 kg/ha): 0.0
ZEAMX preemergence herbicidal rating (ZEAMX (Corn, Field); Rate 0.1250 kg/ha): 9.0
Preemergence herbicidal rating ZEAMX (ZEAMX (Corn, Field); Rate 0.1250 kg/ha): 1.0
ZEAMX preemergence herbicidal rating (ZEAMX (Corn, Field); Rate 0.2500 kg/ha): 9.0
Preemergence herbicidal rating ZEAMX (ZEAMX (Corn, Field); Rate 0.2500 kg/ha): 2.5
TRZAWR herbicidal rating ([9]; rate 0.0320 kg/ha): 1.5
TRZAWR herbicidal rating ([9]; rate 0.0620 kg/ha): 1.5
Postemergence herbicidal rating, TRZAWR ([9]; rate 0.0320 kg/ha): 7.0
Postemergence herbicidal rating, TRZAWR ([9]; rate 0.0620 kg/ha): 7.5
herbicidal rating, MOOVA ([10]; rate 0.0080 kg/ha): 0.0
herbicidal rating, MOOVA [10, 15]: 8.5
herbicidal rating, MOOVA ([10]; rate 0.0320 kg/ha): 5.0
herbicidal rating, MOOVA [10, 13]: 9.0
herbicidal rating, MOOVA ([10]; rate 0.1250 kg/ha): 9.0
GLXMAW preemergence herbicidal rating ([11]; Rate 0.0620 kg/ha): 8.0
Preemergence herbicidal rating GLXMAW ([11]; Rate 0.0620 kg/ha): 0.0
GLXMAW preemergence herbicidal rating ([11]; Rate 0.1250 kg/ha): 9.0
Preemergence herbicidal rating GLXMAW ([11]; Rate 0.1250 kg/ha): 0.5
GLXMAW preemergence herbicidal rating ([11]; Rate 0.2500 kg/ha): 9.0
Preemergence herbicidal rating GLXMAW ([11]; Rate 0.2500 kg/ha): 2.0
IPOHE preemergence herbicidal rating ([12]; Rate 0.0620 kg/ha): 9.0
Preemergence herbicidal rating IPOHE ([12]; Rate 0.0620 kg/ha): 0.5
IPOHE preemergence herbicidal rating ([12]; Rate 0.1250 kg/ha): 9.0
Preemergence herbicidal rating IPOHE ([12]; Rate 0.1250 kg/ha): 3.0
IPOHE preemergence herbicidal rating ([12]; Rate 0.2500 kg/ha): 9.0
Preemergence herbicidal rating IPOHE ([12]; Rate 0.2500 kg/ha): 7.0

Cc1ccn(-c2nsc3ccc(-n4c(=O)cc(C(F)(F)F)n(C)c4=O)cc23)n1 [Compound 38, 1-methyl-3-[3-(3-methylpyrazol-1-yl)-1,2-benzisothiazol-5-yl]-6-(trifluoromethl)uracil]
herbicidal rating, CYPSE ([1]; rate 0.0320 kg/ha): 9.0
herbicidal rating, CYPSE ([1]; rate 0.1250 kg/ha): 9.0
Postemergence herbicidal rating, SETVI (SETVI (Setaria viridis); rate 0.0320 kg/ha): 0.0
Postemergence herbicidal rating, SETVI (SETVI (Setaria viridis); rate 0.0620 kg/ha): 3.0
CASOB preemergence herbicidal rating ([2]; Rate 0.0620 kg/ha): 0.0
CASOB preemergence herbicidal rating ([2]; Rate 0.1250 kg/ha): 0.0
CASOB preemergence herbicidal rating ([2]; Rate 0.2500 kg/ha): 0.0
CHEAL preemergence herbicidal rating ([3]; Rate 0.0620 kg/ha): 9.0
CHEAL preemergence herbicidal rating ([3]; Rate 0.1250 kg/ha): 9.0
CHEAL preemergence herbicidal rating ([3]; Rate 0.2500 kg/ha): 9.0
AMBEL preemergence herbicidal rating ([4]; Rate 0.0620 kg/ha): 0.0
AMBEL preemergence herbicidal rating ([4]; Rate 0.1250 kg/ha): 3.0
AMBEL preemergence herbicidal rating ([4]; Rate 0.2500 kg/ha): 7.0
Postemergence herbicidal rating, ECHCG ([5]; rate 0.0320 kg/ha): 0.0
Postemergence herbicidal rating, ECHCG ([5]; rate 0.0620 kg/ha): 3.0
ABUTH preemergence herbicidal rating ([6]; Rate 0.0620 kg/ha): 4.0
ABUTH preemergence herbicidal rating ([6]; Rate 0.1250 kg/ha): 4.0
ABUTH preemergence herbicidal rating ([6]; Rate 0.2500 kg/ha): 6.0
herbicidal rating, SAGPY ([7]; rate 0.0080 kg/ha): 0.0
herbicidal rating, SAGPY ([7]; rate 0.0320 kg/ha): 4.5
herbicidal rating, SAGPY ([7]; rate 0.1250 kg/ha): 9.0
herbicidal rating, ECHORC ([8]; rate 0.0080 kg/ha): 0.0
herbicidal rating, ECHORC ([8]; rate 0.0320 kg/ha): 7.0
herbicidal rating, ECHORC ([8]; rate 0.1250 kg/ha): 9.0
herbicidal rating, CYPIR (CYPIR (Cyperus iria); rate 0.0080 kg/ha): 3.0
herbicidal rating, CYPIR (CYPIR (Cyperus iria); rate 0.0320 kg/ha): 9.0
herbicidal rating, CYPIR (CYPIR (Cyperus iria); rate 0.1250 kg/ha): 9.0
ZEAMX preemergence herbicidal rating (ZEAMX (Corn, Field); Rate 0.0620 kg/ha): 5.0
ZEAMX preemergence herbicidal rating (ZEAMX (Corn, Field); Rate 0.1250 kg/ha): 5.0
ZEAMX preemergence herbicidal rating (ZEAMX (Corn, Field); Rate 0.2500 kg/ha): 8.0
Postemergence herbicidal rating, TRZAWR ([9]; rate 0.0320 kg/ha): 3.5
Postemergence herbicidal rating, TRZAWR ([9]; rate 0.0620 kg/ha): 4.0
herbicidal rating, MOOVA ([10]; rate 0.0080 kg/ha): 3.0
herbicidal rating, MOOVA ([10]; rate 0.0320 kg/ha): 9.0
GLXMAW preemergence herbicidal rating ([11]; Rate 0.0620 kg/ha): 0.0
GLXMAW preemergence herbicidal rating ([11]; Rate 0.1250 kg/ha): 4.0
GLXMAW preemergence herbicidal rating ([11]; Rate 0.2500 kg/ha): 4.0
IPOHE preemergence herbicidal rating ([12]; Rate 0.0620 kg/ha): 0.0
IPOHE preemergence herbicidal rating ([12]; Rate 0.1250 kg/ha): 0.0
IPOHE preemergence herbicidal rating ([12]; Rate 0.2500 kg/ha): 6.0
